This note sets out measurements from patent US12172972B1, “3-(3-bromophenyl)-5-((2-isopropyl-5-methylphenoxy)methyl)-1,2,4-oxadiazole as an anti-cancer and antimicrobial compound” (KING FAISAL UNIVERSITY, priority 2023, dated 2024).

Common to all, as to format: cell-based
In assay [1] the test system is human prostate cancer cells (PC3). Kind of assay: cytotoxicity by SRB assay. Particulars: 0.01 μM to 100 μM, 72 h. An excerpt:
(§1) The anticancer activity of the described synthesized compounds against highly aggressive androgen-independent metastatic human prostate cancer cells (PC3) and osteosarcoma (MG-63) cells. The human prostate cancer cells (PC3) and human osteosarcoma cells (MG-63) were obtained from Nawah Scientific Inc. (Mokatam, Cairo, Egypt) and cultured in DMEM (Dulbecco's modified eagle's medium), Gibco, USA, supplemented with fetal bovine serum (FBS) at a concentration of 10% and 100 U/mL of penicillin and streptomycin (PS). The Cells were incubated at 37° C. in a humidified environment that contained 5% CO2.
(§2) Cells were seeded in 96-well plates as aliquots of 100 μL cell suspension and incubated in a complete media for 24 h, afterward, cells were treated with 3-(3-bromophenyl)-5-((2-isopropyl-5-methylphenoxy)methyl)-1,2,4-oxadiazole at diverse concentrations ranging from 0.01 μM to 100 μM for 72 h. Then, cells were fixed at 4° C. for one hour with 150 μL of 10% trichloroacetic acid (TCA). […] Then, 150 μL of Tris pH 10.5 (10 mM) was added, and the absorbance was measured at 540 nm using a BMG LABTECH®-FLUOstar Omega microplate reader (Ortenberg, Germany). Half maximal inhibitory concentrations (IC50) values were calculated for each experiment using GraphPad Prism 6 software. […]
(§3) The inhibition was calculated using the following equation: Inhibition %=100−Average Viability
For orientation: Sulforhodamine B stains cellular protein and so reports cell mass.

The subject of assay [2] is human osteosarcoma cells (MG-63). Kind of assay: cytotoxicity by SRB assay. Particulars: MG-63 cells, 0.01 μM to 100 μM, 72 h.
Text: as §1, §2, §3

For assay [3], the system named is Staphylococcus aureus. In words: agar plate disc-diffusion, inhibition zone. The method, then: (§4) The agar plate disc-diffusion method was applied. […] The discs were then placed onto the surface of agar plates (nutrient agar for bacteria and Sabouraud's dextrose agar for fungi) seeded with the test organism. Each plate contained 15 mL of the agar medium, previously seeded with 0.2 mL of the broth culture of each organism pregrown for 18 hours. The plates were incubated at 37° C. for 48 h, and 72 h for fungi. The inhibition zones were measured in mm. Discs impregnated with DMSO were used as a control, and its inhibition zone was subtracted from the tested compound actual inhibition zone.
For orientation: In agar diffusion tests the substance spreads into inoculated agar from a disc or well.

Assay [4] has as its system Bacillus cereus. In words: agar plate disc-diffusion, inhibition zone. The method, then:
as §4

Assay [5] has as its system Aspergillus flavus. Kind of assay: agar plate disc-diffusion, inhibition zone. The method, then:
as §4

The subject of assay [6] is Escherichia coli. Kind of assay: agar plate disc-diffusion, inhibition zone. How it is done: as §4
Assay [7] relates to Pseudomonas aeruginosa. Kind of assay: agar plate disc-diffusion, inhibition zone. How it is done: as §4
The test system of assay [8] is Chrysosporium keratinophilum. In words: agar plate disc-diffusion, inhibition zone. How it is done:
as §4

Assay [9] concerns different microbes. Kind of assay: antimicrobial activity, agar plate disc-diffusion (overall statement). Particulars: against different microbes. How it is done: The agar plate disc-diffusion method was applied. Sterilized filter papers (6 mm in diameter) were wetted with 10 μL of a solution of 3-(3-bromophenyl)-5-((2-isopropyl-5-methylphenoxy)methyl)-1,2,4-oxadiazole (3) to be tested, containing 10 mg/mL in DMSO, and the discs were allowed to air dry. The discs were then placed onto the surface of agar plates (nutrient agar for bacteria and Sabouraud's dextrose agar for fungi) seeded with the test organism. Each plate contained 15 mL of the agar medium, previously seeded with 0.2 mL of the broth culture of each organism pregrown for 18 hours. The plates were incubated at 37° C. for 48 h, and 72 h for fungi. The inhibition zones were measured in mm. Discs impregnated with DMSO were used as a control, and its inhibition zone was subtracted from the tested compound actual inhibition zone.

Setting [10] is: A = concentration of comp. = 10,000 μL.
[11] abbreviates: C = concentration of comp. = 50,000 μL.

With `Cc1ccc(C(C)C)c(OCc2nc(-c3cccc(Br)c3)no2)c1` [3-(3-bromophenyl)-5-((2-isopropyl-5-methylphenoxy)methyl)-1,2,4-oxadiazole], the antiproliferative activities result in assay [1] and in [2] was “excellent antiproliferative activities” throughout.
For `O=C(O)c1cn(C2CC2)c2cc(N3CCNCC3)c(F)cc2c1=O` [Cip., ciprofloxacin, reference compound], the inhibition zone in assay [3] (setting [10]) amounted to 43 mm; in assay [3] (B = concentration of comp.) it was 44 mm; in assay [3] (setting [11]) it was 53 mm; in assay [4] (setting [10]), 29 mm; in [4] (B =), 30 mm; in assay [4] (setting [11]), 42 mm. The inhibition zone is listed as 29 mm in [5] (setting [10]); 30 mm in assay [5] (B =); 42 mm in assay [5] (setting [11]); 30 mm in [6] (setting [10]); 39 mm in [6] (B =); 60 mm in assay [6] (setting [11]). Also, the inhibition zone in assay [7] (setting [10]) is 29 mm; in assay [7] (B =), 30 mm; in [7] (setting [11]), 53 mm; in assay [8] (setting [10]), 29 mm; in [8] (B = concentration of comp.), 30 mm; in assay [8] (setting [11]) it was 53 mm.
On to `Cc1ccc(C(C)C)c(OCc2nc(-c3cccc(Br)c3)no2)c1` [Compound 3, 3-(3-bromophenyl)-5-((2-isopropyl-5-methylphenoxy)methyl)-1,2,4-oxadiazole], for which, in assay [9], the antimicrobial activities entry is listed as “excellent antimicrobial activities”. Also, the inhibition zone in [3] (setting [10]) is recorded as 12 mm; in assay [3] (B = concentration of comp.), 16 mm; in [3] (setting [11]), 19 mm; in assay [4] (setting [10]) it was 27 mm; in assay [4] (B =), 29 mm; in assay [4] (setting [11]) it was 40 mm. Also, the inhibition zone worked out at 20 mm in [5] (setting [10]); 24 mm in assay [5] (B =); 32 mm in assay [5] (setting [11]); 28 mm in assay [6] (setting [10]); 36 mm in assay [6] (B =); 52 mm in assay [6] (setting [11]). Further, the inhibition zone in assay [7] (setting [10]) is recorded as 26 mm; in assay [7] (B =) it was 28 mm; in [7] (setting [11]), 40 mm; in [8] (setting [10]), 25 mm; in assay [8] (B = concentration of comp.), 28 mm; in [8] (setting [11]), 47 mm.
